# Results reported in patent US20100093760A1, “METHODS FOR IDENTIFYING COMPOUNDS THAT MODULATE CELL SIGNALING AND METHODS EMPLOYING SUCH COMPOUNDS” (The General Hospital Corporation, priority 2006, published 2010).
# Entries after “also recorded” stand apart in the source; their conditions may differ.
# Assays:
# [1] = system: hepcidin (HAMP) and Id1 mRNA; experiment: Hepcidin and Id1 mRNA qRT-PCR in Hep3B cells; type: cell-based, human
# Procedure: Quantitative RT-PCR was performed for mRNA encoding Id1 or human hepcidin (HAMP) as previously described (Babitt et al., Nat. Genet. 38:531-539, 2006; Yu et al., J. Biol. Chem. 280:24443-24450, 2005), and normalized to 18S ribosomal RNA (rRNA) or β-actin mRNA levels.
# caALK6 = experiment: Constitutively-active ALK6 transfection: phospho-SMAD1/5/8 immunoblot and Id1 promoter (BRE-Luc); type: cell-based
# Procedure: Cell extracts or tissues were mechanically homogenized in SDS-lysis buffer (62.5 mM Tris-HCl (pH 6.8), 2% SDS, 10% glycerol, 50 mM DTT, 0.01% bromophenol blue); separated by SDS-PAGE; immunoblotted with anti-phospho-SMAD1/5/8, anti-phospho-SMAD2 (Cell Signaling, Beverly, Mass.), or anti-α-tubulin (Upstate/Millipore, Billerica, Mass.) Abs; and visualized using ECL Plus (GE Healthcare, Piscataway, N.J.). Levels of immunoreactive proteins were quantitated by ImageQuant software on a Storm phosphorimager (GE Healthcare).
# Murine PASMCs grown to 50% confluence in 6-well plates were transiently transfected with 0.3 μg Id1 promoter luciferase reporter construct (BRE-Luc, Dr. Peter ten Dijke, Leiden University Medical Center, Netherlands (Korchynskyi et al., J. Biol. Chem. 277:4883-4891, 2002)) in combination with 0.6 μg plasmids expressing constitutively-active forms of BMP type I receptors (caALK2, caALK3, or caALK6, kindly provided by Dr. Kohei Miyazono, University of Tokyo, Japan (Fujii et al., Mol. Biol. Cell 10:3801-3813, 1999)), using Fugene6 (Roche). To assess Activin and […] type I receptor function, PASMCs were transiently transfected with 0.3 μg PAI-1 promoter luciferase reporter construct (CAGA-Luc, Dr. Peter ten Dijke (Dennler et al., Embo J. 17:3091-3100, 1998)) in combination with 0.6 μg plasmids expressing constitutively active forms of type I receptors (caALK4, caALK5, and caALK7, also provided by Dr. Kohei Miyazono (Okadome et al., J. Biol. Chem. 271:21687-21690, 1996; Shimizu et al., Genes Cells 3:125-134, 1998)). For both reporters, 0.2 μg pRL-TK Renilla luciferase (Promega) was used to control for transfection efficiency. PASMCs were incubated with Compound C/Dorsomorphin (4-10 μM) or vehicle starting one hour after transfection, for 24 hours or completion of the experiment. Cell extracts were harvested, and relative promoter activity quantitated by the ratio of firefly to Renilla luciferase activity using the dual luciferase assay kit (Promega). […] Hepcidin promoter activity was measured by luciferase assay as above.
# [2] = system: zebrafish vascular development (KDR); experiment: Zebrafish vascular development (effects of KDR inhibition); type: in vivo; settings: at the doses used for dorsalization
structure (smiles),measurement,setting,value
c1cc(-c2cnn3cc(-c4ccc(OCCN5CCCCC5)cc4)cnc23)ccn1 [Compound C/Dorsomorphin],"Id1 mRNA, alone or in combination with IL-6","[1]; 4 μM, IL-6 100 ng/ml, 6 hours",blocked; also recorded: below basal levels
same,"hepcidin mRNA, alone or in combination with IL-6","[1]; 4 μM, IL-6 100 ng/ml, 6 hours",blocked; also recorded: below basal levels
same,lowering of baseline hepcidin expression,[1]; DM 4 μM alone,27%
same,effect on BMP4-induced hepcidin mRNA expression,"[1]; DM 4 μM pretreatment, BMP4 20 ng/ml",completely abrogated
same,effect on caALK6-induced increase in phospho-SMAD1/5/8,"caALK6; BMPR-II-deficient PASMCs, 10 μM, immunoblot",inhibited
same,effect on caALK6-mediated Id1 promoter activity (BRE-Luc),"caALK6; BMPR-II-deficient PASMCs, 0.5-20 μM",inhibited; also recorded: decreased
same,selectivity among constitutively-active BMP type I receptors,"caALK6; BRE-Luc, FIG. 21h",apparent selectivity for caALK2 and caALK3 over caALK6
same,effects of KDR inhibition on vascular development (intersomitic blood vessels),[2],did not observe any of the known effects of KDR inhibition
